Experimental data from patent US11771712B2, “Carborane compounds and methods of use thereof” (OHIO STATE INNOVATION FOUNDATION, priority 2015, dated 2023).
Like-named read-outs stand apart in the source and are kept apart here.

Key:
[1] = molecular target: T1, Human full-length GR (Homo sapiens, UniProt P04150); experiment: GR cell-based luciferase reporter assay, agonist and antagonist mode, stable U2OS reporter cells; settings: agonist mode and antagonist mode (10 nM dexamethasone), 100 μM to 100 pM, 24 hours
T1 sequence (P04150 1-777): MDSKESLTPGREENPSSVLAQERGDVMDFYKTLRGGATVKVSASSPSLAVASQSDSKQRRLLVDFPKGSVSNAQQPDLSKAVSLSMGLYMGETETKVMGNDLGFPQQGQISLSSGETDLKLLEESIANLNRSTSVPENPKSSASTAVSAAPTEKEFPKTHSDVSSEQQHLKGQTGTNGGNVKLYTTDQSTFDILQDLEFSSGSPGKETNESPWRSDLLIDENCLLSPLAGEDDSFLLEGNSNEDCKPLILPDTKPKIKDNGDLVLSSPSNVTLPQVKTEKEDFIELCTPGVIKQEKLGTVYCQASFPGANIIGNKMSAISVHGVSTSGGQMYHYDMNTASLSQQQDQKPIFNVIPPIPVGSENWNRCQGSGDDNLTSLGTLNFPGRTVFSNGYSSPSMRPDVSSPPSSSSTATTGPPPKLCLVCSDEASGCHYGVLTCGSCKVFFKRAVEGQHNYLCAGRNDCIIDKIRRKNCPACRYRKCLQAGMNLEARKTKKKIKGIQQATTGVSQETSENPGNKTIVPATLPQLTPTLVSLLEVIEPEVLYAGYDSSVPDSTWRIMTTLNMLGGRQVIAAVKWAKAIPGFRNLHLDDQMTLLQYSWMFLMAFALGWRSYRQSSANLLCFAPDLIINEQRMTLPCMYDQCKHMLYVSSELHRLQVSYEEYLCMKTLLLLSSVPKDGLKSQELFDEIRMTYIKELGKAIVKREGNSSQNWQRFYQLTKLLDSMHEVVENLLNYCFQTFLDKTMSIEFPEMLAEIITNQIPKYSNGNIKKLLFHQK

[2] = tested on: HEK293 cells; experiment: HEK293 viability assay (ATPlite 1step); format: cell-based, human; settings: non-transfected HEK293, 24 h, ATP level; for HEK293 viability IC50 (μM): Low = activity detected but too low for exact value
Description: The non-transfected HEK293 cells were seeded to the 384-well plates at 5000 cell/well, compounds were added and the timing of all subsequent steps was exactly the same as in the reporter assays. […] After 24 h of compound incubation with cells, the viability of cells was measured by determining the ATP level in the samples using luciferase cell viability assay, ATPlite 1step (Perkin Elmer, USA).

[3] = molecular target: T2, Human full-length ERβ (Homo sapiens, UniProt Q92731); experiment: ERβ cell-based luciferase reporter assay, agonist mode, transiently transfected HEK293 cells
T2 construct: expression vector encoding human full-length ERα or ERβ; expressed in transfected cells; host or cells: HEK293, transiently transfected
Description: (§1) The selectivity and potency of the various compounds was carried out via in vitro testing in ERα and ERβ cell-based reporter assays. The activity of the selected compounds was determined in the cell-based reporter assays in HEK293 cells.
(§2) The HEK293 cells were propagated in a monolayer in phenol red-free DMEM supplemented with 10% fetal bovine serum, 2 mM Glutamax and penicillin/streptomycin (Thermo Fisher Scientific, MA, USA) and incubated in a 5% CO2 humidified atmosphere at 37° C. Right before transfection, the growth medium was changed to phenol red-free DMEM supplemented with 4% HyClone Fetal Bovine Serum, Charcoal/Dextran Treated (GE Healthcare Life Sciences, USA) and 2 mM Glutamax (starvation medium). The cells were transfected with the expression vector encoding human full-length ERα or ERβ and with the reporter vector containing 3 repeats of estrogen responsive elements (ERE) followed by the minimal thymidine kinase promoter from the herpes simplex virus in the pGL4 vector (Promega, USA). Luciferase served as a reporter gene. The transfection was carried out in 10 cm dishes (Nunc) in the starvation medium. After 24 hours, the cells were trypsinized, counted and seeded to cell culture treated, white, solid 1536-well plates (Corning Inc., NY, USA) at 1500 cells/well in 4 μl of total media volume. The compounds to be tested were diluted in DMSO and transferred to the cells using an acoustic dispenser Echo 520 (Labcyte). The compounds were tested at least at 12 different concentration points in the range from 10 μM to 100 pM, in triplicates. Luciferase activity was determined after 24 hours of incubation with compounds with Britelite plus luciferase reporter gene assay reagent (Perkin Elmer, USA), according to the manufacturer protocol. The luciferase signal was measured on an Envison multimode plate reader (Perkin Elmer, USA). Data were collected and processed using an in-house built LIMS system ScreenX and GraphPad Prism software. EC50 values were calculated using a regression function (dose response, variable slope).

[4] = molecular target: T3, Human full-length AR (Homo sapiens, UniProt P10275); experiment: AR cell-based luciferase reporter assay, agonist and antagonist mode, stable U2OS reporter cells; settings: agonist mode and antagonist mode (2 nM dihydrotestosterone), 100 μM to 100 pM, 24 hours
T3 sequence (P10275 1-920): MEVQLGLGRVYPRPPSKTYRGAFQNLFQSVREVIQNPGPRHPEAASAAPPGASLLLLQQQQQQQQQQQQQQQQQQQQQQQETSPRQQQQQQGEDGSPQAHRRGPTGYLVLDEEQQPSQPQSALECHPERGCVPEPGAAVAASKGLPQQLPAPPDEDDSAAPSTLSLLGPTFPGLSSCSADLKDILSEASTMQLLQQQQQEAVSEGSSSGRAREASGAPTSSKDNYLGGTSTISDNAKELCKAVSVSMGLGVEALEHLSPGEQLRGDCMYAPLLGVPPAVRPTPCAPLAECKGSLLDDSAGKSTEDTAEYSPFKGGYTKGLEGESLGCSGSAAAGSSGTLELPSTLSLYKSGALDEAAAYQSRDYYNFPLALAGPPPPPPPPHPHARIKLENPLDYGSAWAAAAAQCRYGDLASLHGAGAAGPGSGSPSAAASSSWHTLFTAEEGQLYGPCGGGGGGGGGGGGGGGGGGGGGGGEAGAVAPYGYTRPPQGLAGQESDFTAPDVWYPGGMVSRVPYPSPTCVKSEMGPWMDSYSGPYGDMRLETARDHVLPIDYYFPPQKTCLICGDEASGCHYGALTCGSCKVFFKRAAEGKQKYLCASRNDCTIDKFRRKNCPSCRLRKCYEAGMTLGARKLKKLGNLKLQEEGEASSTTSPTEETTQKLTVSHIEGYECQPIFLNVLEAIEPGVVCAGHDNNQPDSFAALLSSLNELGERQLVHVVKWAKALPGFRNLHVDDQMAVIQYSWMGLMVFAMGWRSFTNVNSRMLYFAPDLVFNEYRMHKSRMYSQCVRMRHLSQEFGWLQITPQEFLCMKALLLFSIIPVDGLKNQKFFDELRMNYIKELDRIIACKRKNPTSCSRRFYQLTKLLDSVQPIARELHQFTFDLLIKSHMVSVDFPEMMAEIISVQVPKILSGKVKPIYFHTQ

[5] = molecular target: T4, Human full-length ERα (Homo sapiens, UniProt P03372); experiment: ERα cell-based luciferase reporter assay, agonist mode, transiently transfected HEK293 cells; settings: 24 h; for EC50: low = activity detected but too low for exact value
T4 construct: expression vector encoding human full-length ERα or ERβ; expressed in transfected cells; host or cells: HEK293, transiently transfected
T4 sequence (P03372 1-595): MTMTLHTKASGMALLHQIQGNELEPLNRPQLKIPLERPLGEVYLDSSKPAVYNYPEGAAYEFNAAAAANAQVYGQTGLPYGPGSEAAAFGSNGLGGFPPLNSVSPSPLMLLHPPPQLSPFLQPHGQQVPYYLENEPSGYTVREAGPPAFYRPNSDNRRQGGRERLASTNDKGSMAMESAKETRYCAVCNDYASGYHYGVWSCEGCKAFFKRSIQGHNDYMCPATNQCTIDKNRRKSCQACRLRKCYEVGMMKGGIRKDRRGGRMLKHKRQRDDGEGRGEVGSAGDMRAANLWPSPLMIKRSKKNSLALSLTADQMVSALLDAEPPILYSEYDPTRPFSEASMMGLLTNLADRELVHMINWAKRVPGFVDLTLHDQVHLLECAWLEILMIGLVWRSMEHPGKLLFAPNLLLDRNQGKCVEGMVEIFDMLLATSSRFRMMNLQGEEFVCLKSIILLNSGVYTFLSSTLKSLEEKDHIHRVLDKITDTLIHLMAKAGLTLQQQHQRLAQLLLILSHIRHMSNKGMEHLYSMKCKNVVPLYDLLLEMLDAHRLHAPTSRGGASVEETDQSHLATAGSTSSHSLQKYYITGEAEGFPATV
Description: as §1, §2

[6] = Trial 2 (believed more reliable)

T2 sequence (Q92731 whole entry): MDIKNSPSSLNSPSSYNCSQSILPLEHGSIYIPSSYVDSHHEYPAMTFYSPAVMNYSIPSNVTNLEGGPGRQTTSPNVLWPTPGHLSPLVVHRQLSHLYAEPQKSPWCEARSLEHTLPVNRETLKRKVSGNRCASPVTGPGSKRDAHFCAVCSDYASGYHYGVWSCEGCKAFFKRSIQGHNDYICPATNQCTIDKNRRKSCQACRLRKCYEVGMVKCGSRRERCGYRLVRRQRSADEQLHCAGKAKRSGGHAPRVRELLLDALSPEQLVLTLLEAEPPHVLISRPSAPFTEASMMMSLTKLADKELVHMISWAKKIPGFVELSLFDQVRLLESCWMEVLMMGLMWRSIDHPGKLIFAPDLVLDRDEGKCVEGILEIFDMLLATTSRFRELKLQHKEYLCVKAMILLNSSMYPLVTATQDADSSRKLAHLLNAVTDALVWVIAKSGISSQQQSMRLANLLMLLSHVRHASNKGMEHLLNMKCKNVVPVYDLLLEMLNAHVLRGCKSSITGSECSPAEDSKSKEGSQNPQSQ

## 1-(4-hydoxyphenyl)-12-(1-hydroxyheptyl)-1,12-dicarba-closo-dodecaborane [Compound 06]
[1]
  agonistic or antagonistic activities on GR: no agonistic or antagonistic activities
[2]; Trial 1
  IC50: 18000 nM
[2]; [6]
  IC50: 17000 nM
[3]; Trial 1
  ERβ Efficacy (%): 100%
[3]; Trial 1, log10 of EC50
  ERβ Log(EC50) (M): −7.71 M
[3]; Trial 1, read-out: ERβ EC50
  EC50: 19 nM
[3]; [6]
  ERβ Efficacy (%): 103%
[3]; Trial 2 (believed more reliable), log10 of EC50
  ERβ Log(EC50) (M): −7.76 M
[3]; Trial 2 (believed more reliable), read-out: ERβ EC50
  EC50: 17 nM
[3]; differs from Table 5, luciferase reporter assay in HEK cells, read-out: EC50 at ERβ
  EC50: 5 nM

## C[C@]12CC[C@@H]3c4ccc(O)cc4CC[C@H]3[C@@H]1CC[C@@H]2O [Compound E2, Estradiol]
[1]
  agonistic or antagonistic activities on GR: no agonistic or antagonistic activities
[2]
  HEK293 viability IC50 (μM): Low

## N#CC(Cc1ccc(O)cc1)c1ccc(O)cc1 (centres unmarked) [DPN, Diarylpropionitrile]
[1]
  agonistic or antagonistic activities on GR: no agonistic or antagonistic activities
[2]
  HEK293 viability IC50 (μM): Low
[4]
  agonistic or antagonistic activities on AR: no agonistic or antagonistic activities

## CCCc1c(-c2ccc(O)cc2)nn(-c2ccc(O)cc2)c1-c1ccc(O)cc1 [PPT, Propyl pyrazole triol]
[5]
  ERα Efficacy (%): 101%
[5]; read-out: ERα EC50
  EC50: 3.3 nM
[5]; log10 of EC50, negative values, read-out: ERα Log(EC50) (converted)
  EC50: 3.31 nM
[3]; 24 h, low = activity detected but too low for exact value
  ERβ EC50 (nM): low
[3]; log10 of EC50, negative values, 24 h, low = activity detected but too low for exact value
  ERβ Log(EC50) (M): low
